Measurements published in US11834698B2, “Process for determining enzyme activity in a cell by activity-based reporter gene technology (ABRGT)” (INDIAN INSTITUTE OF SCIENCE EDUCATION AND RESEARCH, priority 2018, dated 2023).
“And” between values parts separate entries of the source, which are not always exact repeats. Equal values may be shown once. Peptide text beside a SMILES is read from it. * marks the point of attachment. Cbz = O=C(OCc1ccccc1)*; CH2F = FC*

Columns and labels:
Format in all cases: cell-based
caspase-8 GFPspark = target: T1, caspase-8 GFPspark (Homo sapiens, UniProt Q14790); assay: AbRGT FRET imaging / acceptor photobleaching, caspase-8 GFPspark in HEK-293 cells
T1 construct: host or cells: HEK-293
T1 sequence (Q14790 217-374 limits assumed): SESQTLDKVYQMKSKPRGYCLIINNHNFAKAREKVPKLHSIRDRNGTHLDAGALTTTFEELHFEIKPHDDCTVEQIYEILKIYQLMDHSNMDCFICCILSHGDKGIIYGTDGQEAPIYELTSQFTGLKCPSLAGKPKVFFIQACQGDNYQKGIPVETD
T1 sequence (Q14790 385-479 limits assumed): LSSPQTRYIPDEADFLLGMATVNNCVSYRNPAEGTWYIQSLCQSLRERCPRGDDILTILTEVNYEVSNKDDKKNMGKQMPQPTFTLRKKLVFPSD
Description: FIG. 15 depicts confocal images of MCF-7 cells in GFP, FRET and Rh channel Caspase-7 GFPspark transfected MCF-7 cells were treated with STS (1 μM) for 6 h and labelled (a) (i) with probe 1 (1 μM) probe. Cells were pre-treated with (a) (ii) Z-VAD-FMK (50 μM) or (a) (iii) Q-VD-OPh (50 μM) pan-caspase inhibitors 1 h before the probe labelling. Caspase-9 GFPspark transfected MCF-7 cells were treated with STS (1 μM) for 4 h and labelled (b) (i) with probe 1 (1 μM) probe. Cells were pre-treated with (b) (ii) Z-VAD-FMK (50 μM) 1 h before probe labelling. Caspase-8 GFPspark overexpressing HEK-293 cells were treated with TRAIL (1 μg/ml) for 5 h and labelled (c) (i) with the probe 1. Cells were pre-treated with (c) (ii) Z-VAD-FMK (50 μM) 1 h before probe labelling.
FIG. 18 depicts specific detection of caspase-8 GFPspark in HEK-293 cells. Casp-8 GFPspark (1 μg) transfected HEK-293 cells were treated with TRAIL ([…]) for 6 h and labelled with the probe 1 (1 μM) for 2 h. Cells were washed, fixed and the fluorescence signal was collected in GFP, FRET and Rh channels. The acceptor photobleaching experiment was performed to confirm the FRET signal as described previously. The bar graph representing a rise in GFP intensity in ROI after rhodamine photobleaching was 82 a.u. as compared to the unbleached background, i.e., 11 a.u. The FRET efficiency was calculated to be 31±1%.
Plasmids and transient transfection: GFPspark tagged plasmids; caspase-3 GFPspark tag (Cat: HG10050-ACG), caspase-7 GFPspark tag (HG10049-ACG), caspase-8 GFPspark (HG10078-ACG), caspase-9 GFPspark (HG11151-ACG) and cathepsin B GFPspark (HG10483-ACG) were procured from Sino Biological. For transfection, cells were seeded in a 6-well plate at a density of 0.4 million cells/well. At 60-70% confluency, cells were transiently transfected for 24 h at 37° C. with 1 μg of the GFPspark tagged plasmid DNA construct mixed with 5 μL of Lipofectamine 2000 (Invitrogen) according to the manufacturer's instructions. 24 h post-transfection, cells were visualized under the GFP filter for GFPspark expression under fluorescence microscope at 10× magnification.
Labelling of active caspases in apoptotic cells with FABP: After 24 h of transfection, cells were treated with STS (1 μM) drug or TRAIL (1 μg/ml) for apoptotic induction and incubated for 2, 4, 6 and 8 h at 37° C. in a humidified atmosphere of 5% CO2/95% air. Cells were gently scraped off from the surface at the end of apoptotic induction and centrifuged at 3000 rpm for 5 min. […] Slides were then imaged for GFP, FRET and rhodamine fluorescence signals under confocal microscopy. […]
Fluorescence imaging studies, FRET procedure: Images were collected on Zeiss LSM710 confocal microscope with 25 mW argon laser using Zen10 software. […]

caspase-3 GFPspark [1] = target: T2, caspase-3 GFPspark (Homo sapiens, UniProt P42574); assay: AbRGT FRET imaging / acceptor photobleaching, caspase-3 GFPspark in HEK-293 cells; parameters: host or cells: HEK-293; conditions: HEK-293, STS 1 μM 10 h, probe 1 μM
T2 sequence (P42574 29-175 limits assumed): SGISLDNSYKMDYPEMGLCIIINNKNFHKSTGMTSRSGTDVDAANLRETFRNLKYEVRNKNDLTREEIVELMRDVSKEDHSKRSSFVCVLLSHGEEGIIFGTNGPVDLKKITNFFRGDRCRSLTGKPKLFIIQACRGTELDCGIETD
T2 sequence (P42574 176-277 limits assumed): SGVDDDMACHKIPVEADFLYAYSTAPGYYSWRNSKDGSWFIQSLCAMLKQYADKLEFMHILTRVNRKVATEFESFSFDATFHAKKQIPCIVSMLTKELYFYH

caspase-3 GFPspark [2] = target: T2, caspase-3 GFPspark; assay: AbRGT FRET imaging / acceptor photobleaching, caspase-3 GFPspark in HeLa cells; parameters: host or cells: HeLa; conditions: STS 1 μM 10 h, probe 1 μM
[3] = HEK-293, TRAIL, Z-VAD-FMK pre-treatment
[4] = HEK-293, TRAIL 6 h, probe 1 μM 2 h

COC(=O)C[C@H](NC(=O)[C@H](C)NC(=O)[C@@H](NC(=O)OCc1ccccc1)C(C)C)C(=O)CF [Z-VAD-FMK] (Cbz-Val-Ala-Asp(OMe)-CH2F)
effect of inhibitor on signal in FRET channel (caspase-8 GFPspark; [3]): abolished
effect of inhibitor on signal in Rh channel (caspase-8 GFPspark; [3]): abolished

Rhodamine-VAD-fluoromethyl ketone [probe 1]
calculated FRET efficiency (caspase-3 GFPspark [1]): 32.5±2% and 33±2%
rise in GFP intensity in the ROI (caspase-3 GFPspark [1]): 72 a.u.
calculated FRET efficiency (caspase-3 GFPspark [2]): 32±2%
rise in GFP intensity in the ROI (caspase-3 GFPspark [2]; n=15 cells): 52±5 a.u.
calculated FRET efficiency (caspase-8 GFPspark; [4]): 31±1%
rise in GFP intensity in ROI after rhodamine photobleaching (caspase-8 GFPspark; [4]): 82 a.u.
